Experimental data published in patent publication US20230031406A1, “COMPOUNDS AND COMPOSITIONS FOR TREATING CONDITIONS ASSOCIATED WITH NLRP ACTIVITY” (Novartis AG, priority 2018, published 2023).
Where two headings read alike, the source gives them in different places. One block for each molecule: values may come before it.

System: PMA-differentiated THP-1 cells
Test: IL-1β production in PMA-differentiated THP-1 cells stimulated with gramicidin (hTHP-1 assay containing 2% fetal bovine serum; Procedures 1 and 2)
Type: cell-based, human
Conditions: 2% fetal bovine serum
Procedure, shortened: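 Compound titrations in 0.37% final DMSO were added to THP-1 cells that had been plated after 16-18 h PMA treatment, 50,000 per well in 2% FBS. One hour later the cells received gramicidin (5 μM, 2 h) and were centrifuged. HTRF detected IL-1β in the collected supernatants.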

[1] = Table B2, class symbols, read-out: hTHP-1 IC50
[2] = Homo sapiens, THP-1, Table B2, class symbols, read-out: hTHP-1 IC50
[3] = Homo sapiens, THP-1, Table B1, class symbols, read-out: Average IC50 of compounds in hTHP-1 assay: hTHP-1 IC50
[4] = Table B3, hTHP-1 assay, class symbols, read-out: IC50
[5] = Table B4, class symbols, read-out: hTHP-1 IC50
[6] = Homo sapiens, THP-1, Table B3, hTHP-1 assay, class symbols, read-out: IC50

- IC50 [1]: 5 to 30 µM
Compound: C[C@@H]1CCc2c1nc1c(c2NC(=O)N=S(N)(=O)c2ccn(C(C)(F)F)n2)CCC1 (single isomer, unassigned) [Compound 723a, (S) or (R)-1-(1,1-Difluoroethyl)-N′-(((R)-3-methyl-1,2,3,5,6,7-hexahydrodicyclopenta[b, e]pyridin-8-yl)carbamoyl)-1H-pyrazole-3-sulfonimidamide]

- IC50 [1]: 0.04 to 0.2 µM
Compound: CCn1ccc(S(N)(=O)=NC(=O)Nc2c3c(nc4c2CC[C@H]4C)CCC3)n1 (single isomer, unassigned) [Compound 634b, (R) or (S)-1-Ethyl-N′-(((R)-3-methyl-1,2,3,5,6,7-hexahydrodicyclopenta [b,e]pyridin-8-yl)carbamoyl)-1H-pyrazole-3-sulfonimidamide]

- IC50 [1]: 5 to 30 µM
Compound: CC(C)(O)c1cnc(S(N)(=O)=NC(=O)Nc2c3c(nc4c2CCC42CC2)CCC3)s1 (single isomer, unassigned) [Compound 683b, (S) or (R)-5-(2-Hydroxypropan-2-yl)-N′-((1′,5′,6′,7′-tetrahydro-2′H-spiro[cyclopropane-1,3′-dicyclopenta[b,e]pyridin]-8′-yl)carbamoyl)thiazole-2-sulfonimidamide]

- IC50 [2]: 0.2 to 1 µM
Compound: C[C@@H]1CCc2c1nc1c(c2NC(=O)N=S(N)(=O)c2sc(CN(C)C)cc2F)CCC1 (stereo partly drawn) [Compound 636c, 5-((Dimethylamino)methyl)-3-fluoro-N′-(((R)-3-methyl-1,2,3,5,6,7-hexahydrodicyclopenta[b,e]pyridin-8-yl)carbamoyl)thiophene-2-sulfonimidamide]

- IC50 [1]: 5 to 30 µM
Compound: CC1(C)CCc2c1nc1c(c2NC(=O)N=S(N)(=O)c2ccn(-c3ccccc3)n2)CCC1 (single isomer, unassigned) [Compound 659a, (S) or (R)-N′-((3,3-dimethyl-1,2,3,5,6,7-hexahydrodicyclopenta [b,e]pyridin-8-yl)carbamoyl)-1-phenyl-1H-pyrazole-3-sulfonimidamide]

- IC50 [1]: 0.04 to 0.2 µM
Compound: C[C@@H]1CCc2c1nc1c(c2NC(=O)N=S(N)(=O)c2sc(CN(C)C)cc2F)CCC1 (single isomer, unassigned) [Compound 636b, (R) or (S)-5-((Dimethylamino)methyl)-3-fluoro-N′-(((R)-3-methyl-1,2,3,5,6,7-hexahydrodicyclopenta [b,e]pyridin-8-yl)carbamoyl) thiophene-2-sulfonimidamide]

- IC50 [2]: 1 to 5 µM
Compound: Cc1c(C(F)(F)F)nc2c(c1NC(=O)N=[S@@](N)(=O)c1cnc(C(C)(C)O)s1)CCC2C (stereo partly drawn) [Compound 608d]

- IC50 (Table B3, hTHP-1 assay, class symbols, listed as Compound 984a, read-out: IC50): 5 to 30 µM
Compound: NS(=O)(=NC(=O)Nc1c2c(nc(C(F)(F)F)c1C1CC1)CCC2)c1nn(C(F)F)cc1F (stereo not drawn) [Compound 984a]

- IC50 [2]: 1 to 5 µM
Compound: CC(C)n1nc(S(N)(=O)=NC(=O)Nc2c3c(nc4c2CCC4(C)C)CCC3)cc1C(C)(C)O (single isomer, unassigned) [Compound 615b, (R) or (S)-N′-((3,3-dimethyl-1,2,3,5,6,7-hexahydrodicyclopenta [b,e]pyridin-8-yl)carbamoyl)-5-(2-hydroxypropan-2-yl)-1-isopropyl-1H-pyrazole-3-sulfonimidamide]

- IC50 (Homo sapiens, THP-1, Table B2, numeric bounds, read-out: hTHP-1 IC50): > 30 µM
Compound: CC(C)n1nc(S(N)(=O)=NC(=O)Nc2c3c(nc4c2CCC4(C)C)CCC3)cc1CO (single isomer, unassigned) [Compound 652b]

- IC50 [1]: 0.2 to 1 µM
Compound: Cc1c(C2CC2)nc2c(c1NC(=O)N=S(N)(=O)c1cc(C(C)(C)O)cs1)CCC2C (single isomer, unassigned) [Compound 656a, (R, R) or (R, S) or (S, R) or (S, S)-N′-((2-Cyclopropyl-3,7-dimethyl-6,7-dihydro-5H-cyclopenta[b]pyridin-4-yl)carbamoyl)-4-(2-hydroxypropan-2-yl)thiophene-2-sulfonimidamide]

The next lines start with the molecule.

Compound: Cc1nc2c(c(NC(=O)N=S(N)(=O)c3cnc(C(C)(O)CO)s3)c1C(C)C)CCC2 (stereo not drawn) [Compound 627, 2-(1,2-Dihydroxypropan-2-yl)-N′-((3-isopropyl-2-methyl-6,7-dihydro-5H-cyclopenta[b]pyridin-4-yl)carbamoyl)thiazole-5-sulfonimidamide]
- IC50 [2]: 0.2 to 1 µM

Compound: CC1CCc2c1nc1c(c2NC(=O)N=S(N)(=O)c2cnn(C(C)C)c2)CCC1 (stereo not drawn) [Compound 171, 1-isopropyl-N′-((3-methyl-1,2,3,5,6,7-hexahydrodicyclopenta[b,e]pyridin-8-yl)carbamoyl)-1H-pyrazole-4-sulfonimidamide]
- IC50 [3]: 1 to 5 µM

Compound: Cc1sc(S(N)(=O)=NC(=O)Nc2c3c(nc4c2CCC4)CCC3)cc1C(C)(C)O (single isomer, unassigned) [Compound 107b, (S) or (R)-N′-((1,2,3,5,6,7-hexahydrodicyclo-penta[b,e]pyridin-8-yl)carbamoyl)-4-(2-hydroxypropan-2-yl)-5-methylthiophene-2-sulfonimidamide]
- IC50 (Table B1, class symbols, read-out: Average IC50 of compounds in hTHP-1 assay: hTHP-1 IC50): 5 to 30 µM

Compound: CCn1cc(F)c(S(N)(=O)=NC(=O)Nc2c3c(nc4c2CC[C@H]4C)CCC3)n1 (single isomer, unassigned) [Example 670, (S) or (R)-1-ethyl-4-fluoro-N′-(((R)-3-methyl-1,2,3,5,6,7-hexahydrodicyclopenta[b,e]pyridin-8-yl)carbamoyl)-1H-pyrazole-3-sulfonimidamide]
- IC50 [4]: 1 to 5 µM

Compound: Cc1c(C(F)(F)F)nc(C(F)(F)F)c(C)c1NC(=O)N=S(N)(=O)c1cc(C(C)(C)O)cs1 (single isomer, unassigned) [Example 756, (S) or (R)-N′-((3,5-dimethyl-2,6-bis(trifluoromethyl)pyridin-4-yl)carbamoyl)-4-(2-hydroxypropan-2-yl)thiophene-2-sulfonimidamide]
- IC50 [5]: 5 to 30 µM

Compound: CC(C)(O)c1cc(F)c(S(N)(=O)=NC(=O)Nc2c3c(nc(C4CC4)c2C2CC2)CCC3)s1 (single isomer, unassigned) [Example 697, (R) or (S)-N′-((2,3-dicyclopropyl-6,7-dihydro-5H-cyclopenta[b]pyridin-4-yl)carbamoyl)-3-fluoro-5-(2-hydroxypropan-2-yl) thiophene-2-sulfonimidamide]
- IC50 [4]: 0.04 to 0.2 µM

Compound: CC(C)c1nc2c(cc1NC(=O)N=S(N)(=O)c1cnc(C(C)(C)O)s1)CCC2 (single isomer, unassigned) [Example 701, (R) or (S)-2-(2-Hydroxypropan-2-yl)-N′-((2-isopropyl-6,7-dihydro-5H-cyclopenta[b]pyridin-3-yl)carbamoyl)thiazole-5-sulfonimidamide]
- IC50 [6]: 5 to 30 µM

Compound: CC(C)(O)c1cnc(S(N)(=O)=NC(=O)Nc2c3c(nc4c2CCC4(C)C)CCC3)s1 (stereo not drawn) [Compound 686, N′-((3,3-dimethyl-1,2,3,5,6,7-hexahydrodicyclopenta[b,e]pyridin-8-yl)carbamoyl)-5-(2-hydroxypropan-2-yl)thiazole-2-sulfonimidamide]
- IC50 [2]: 0.2 to 1 µM

Compound: CC(O)c1csc([S@](N)(=O)=NC(=O)Nc2c3c(nc4c2CC[C@H]4C)CCC3)c1 (stereo partly drawn) [Example 582, (R)-4-(1-hydroxyethyl)-N′-(((R)-3-methyl-1,2,3,5,6,7-hexahydrodicyclopenta[b,e]pyridin-8-yl)carbamoyl)thiophene-2-sulfonimidamide]
- IC50 [6]: 0.04 to 0.2 µM

Compound: CC1(C)CCc2c1nc1c(c2NC(=O)N=[S@](N)(=O)c2cc([C@](C)(O)CO)cs2)CCC1 [Example 652, (S)-4-((S)-1,2-dihydroxypropan-2-yl)-N′-((3,3-dimethyl-1,2,3,5,6,7-hexahydrodicyclopenta[b,e]pyridin-8-yl)carbamoyl) thiophene-2-sulfonimidamide]
- IC50 [6]: 5 to 30 µM

Compound: CCn1cc(F)c(S(N)(=O)=NC(=O)Nc2c3c(nc(C(F)(F)F)c2-c2ccccc2F)CCC3)n1 (single isomer, unassigned) [Example 780, (S) or (R)-1-ethyl-4-fluoro-N′-((3-(2-fluorophenyl)-2-(trifluoromethyl)-6,7-dihydro-5H-cyclopenta[b]pyridin-4-yl)carbamoyl)-1H-pyrazole-3-sulfonimidamide]
- IC50 [5]: 0.2 to 1 µM

Compound: CC(=O)c1csc(S(N)(=O)=NC(=O)Nc2c3c(nc4c2CC[C@H]4C)CCC3)c1 (single isomer, unassigned) [Example 665, (R) or (S)-4-acetyl-N′-(((R)-3-methyl-1,2,3,5,6,7-hexahydrodicyclopenta[b,e]pyridin-8-yl)carbamoyl)thiophene-2-sulfonimidamide]
- IC50 [4]: 0.2 to 1 µM

Compound: CC(C)(O)c1ncc(S(N)(=O)=NC(=O)Nc2c3c(nc4c2CCC4O)CCC3)s1 (stereo not drawn) [Compound 178, N′-((3-hydroxy-1,2,3,5,6,7-hexahydrodicyclopenta[b,e]pyridin-8-yl)carbamoyl)-2-(2-hydroxypropan-2-yl)thiazole-5-sulfonimidamide]
- IC50 [3]: 5 to 30 µM

Compound: C[C@H]1CCc2c1nc1c(c2NC(=O)N=S(N)(=O)c2cnc([C@@](C)(O)CO)s2)CCC1 (single isomer, unassigned) [Example 729]
- IC50 (Homo sapiens, THP-1, Table B4, class symbols, read-out: hTHP-1 IC50): 1 to 5 µM

Compound: CC(C)n1cc(F)c(S(N)(=O)=NC(=O)Nc2c3c(nc4c2CCC4)CCC3)n1 (single isomer, unassigned) [Example 786, (S) or (R)-4-fluoro-N′-((1,2,3,5,6,7-hexahydrodicyclopenta [b,e]pyridin-8-yl)carbamoyl)-1-isopropyl-1H-pyrazole-3-sulfonimidamide]
- IC50 [5]: 5 to 30 µM

Compound: CC(C)n1nc(S(N)(=O)=NC(=O)Nc2c3c(nc4c2CCC4(C)C)CCC3)cc1C(C)(C)O (stereo not drawn) [Compound 615, N′-((3,3-dimethyl-1,2,3,5,6,7-hexahydrodicyclopenta[b,e]pyridin-8-yl)carbamoyl)-5-(2-hydroxypropan-2-yl)-1-isopropyl-1H-pyrazole-3-sulfonimidamide]
- IC50 [2]: 1 to 5 µM
